The source of these data is PMC7714403 (JCI Insight, 2020).

SMILES strings stand for the structures. Read-outs that look alike come from different tables or passages of the source. Some results are limits rather than exact numbers.

Assay [1] deals with primary FLT3-ITD/IDH2-R140Q murine leukemia cells. Nature of the assay: CellTiterGlo viability assay, ex vivo. It counts as cell-based. The settings on record: Mus musculus, 72 hours. As to the method: (§1) Drug treatments were carried out for 72 hours. Details are provided in the Supplemental Methods.
(§2) Cell viability of primary samples […]
For murine or human primary AML cells, 100,000 cells/well were plated in a 96-well plate and treated with increasing concentrations of drug. Cell viability, via trypan blue, was measured every 24 hours. If the viability fell below 50% or at 72 hours of treatment, whichever came earlier, cell viability of each plate was measured via
On the technique in general: ATP-based viability assays read luminescence as a measure of living cells.

Assay [2] has as its system human primary AML samples. The experiment in a line: CellTiterGlo viability assay, ex vivo. It counts as cell-based. As to the method: as §1, §2
For murine or human primary AML cells, 100,000 cells/well were plated in a 96-well plate and treated with increasing concentrations of drug. Cell viability, via trypan blue, was measured every 24 hours. If the viability fell below 50% or at 72 hours of treatment, whichever came earlier, cell viability of each plate was measured via CellTiter-Glo. Primary human AML cells were obtained from the OSUCCC Leukemia Tissue Bank Shared […]
Primary AML samples were analyzed by targeted gene sequencing of 80 genes, as previously described (1). Samples were pooled and analyzed on a MiSeq system using the Illuminia MiSeq Reagent Kit v3. Ill umina Isis Banded Smith Waterman aligner and hg19 genome were used to align the sequences. Single nucleotide variant (SNV) and indel calling were performed using MuTect and Varscan2. A variant allele fraction (VAF) cut-off of 0.10 was set for reporting mutations. SNV that are reported as pathogenic SNP were considered mutations.
All other SNV needed to be absent from 1000 Genome database, dsSNP137 or dsSNP142. Visual inspection of all variants was carried out using Integrative Genomics Viewer (Broad Institute) . […]

A further assay concerns the target T1, PLK4 (Homo sapiens, UniProt O00444).
T1 construct: purchased Eurofins DiscoverX
Nature of the assay: KdELECT binding assay.

For the next assay, the target named is FLT3 ITD/F691L (Homo sapiens, UniProt P36888, F691L/ITD). The experiment in a line: KdELECT binding assay.
Another assay deals with OCI-AML3-Luc+ cells. The experiment in a line: OCI-AML3-Luc+ xenograft model. The format is in vivo, NSG mice. Here is the method: Engraftment and growth of leukemic cells were monitored by noninvasive bioluminescence imaging in cell line xenograft models, as previously done ([47]). Details on the cell engraftment and dosing in mouse models are provided in the Supplemental Methods.
Luc+ or MOLM13-Res -Luc+ cells, 0.5 million OCI-AML3 -Luc+ cells, and 10,000 Ba/F3-FLT3-ITD/F691L-GFP+ cells. Weekly tumor engraftment of cell line xenograft models were assessed after injection of D-luciferin (150mg/kg i.p.; Gold Biotechnology, Inc, St. Louis, MO) on Xenogen IVIS-200 imaging system (Perkin Elmer, Waltham, MA) or GFP monitoring by peripheral blood via BD LSR II flow cytometer (BD Biosciences, San Jose, CA). Signal intensity was analyzed using Living Image Software (PerkinElmer) or FlowJo v10.0.08 software (FlowJo, LLC, Ashland, OR). Mice were randomized to treatment groups based on signal intensity and leukemia burden. Drug treatments were started on days 3, 7, or 13 after cell injection in OCI-AML3, MOLM13, and MOLM13-Res xenografts, respectively. […]
All mice were observed daily and humanely euthanized when showing signs of progressive disease including, hind limb paralysis, weight loss more than 20%, and lethargy. All animal studies were approved by the OSU Institutional Animal Care and Use Committee. […]
Cells were then fixed on ice with ice-cold 70% ethanol for 30 minutes . Cells were either stored at -20°C for up to 1 month or processed immediately. Cells were spun down at 450 x g for 10 minutes and stained

In a further assay the test system is AMPKa1, AMPKa2. Nature of the assay: KiNativ, OCI cells live cell. It counts as cell-based, human.
The test system of the next assay is CDK11, CDK8. The experiment in a line: KiNativ, OCI cells live cell. It counts as cell-based, human. The following applies: labeling site Lys2, peptide DLKPANILVMGEGPER
The target in a further assay is CK1a (Homo sapiens, UniProt P48729). The experiment in a line: KiNativ, OCI cells live cell. It counts as cell-based. The following applies: 2 h, labeling site Lys2, peptide […].
For the next assay, the target named is Erk2 (Homo sapiens, UniProt P28482). The experiment in a line: KiNativ, OCI cells live cell. The format is cell-based. The following applies: 2 h, labeling site Lys2, peptide […].
Another assay concerns the target FES (Homo sapiens, UniProt P07332). Nature of the assay: KiNativ, OCI cells live cell. The format is cell-based. The settings on record: 2 h, labeling site Lys1, peptide […].
Another assay deals with IRAK1 (Homo sapiens, UniProt P51617). Nature of the assay: KiNativ, OCI cells live cell. The format is cell-based. The settings on record: 2 h, labeling site Lys2, peptide […].
The target of a further assay is T2, JAK2 domain2 (Homo sapiens, UniProt O60674).
T2 construct: JAK2 domain2
The experiment in a line: KiNativ, OCI cells live cell. The following applies: labeling site Activation Loop, peptide IGDFGLTKVLPQDKEYYK
The format is cell-based.

Another assay has as its target T3, MSK1 domain1 (Homo sapiens, UniProt O75582).
T3 construct: MSK1 domain1
Nature of the assay: KiNativ, OCI cells live cell. The settings on record: 2 h, labeling site Lys2, peptide […]. It counts as cell-based.

The target in another assay is PITSLRE (Homo sapiens, UniProt P21127). The experiment in a line: KiNativ, OCI cells live cell. It counts as cell-based. The following applies: 2 h, labeling site Lys2, peptide […].
A further assay addresses SNRK (Homo sapiens, UniProt Q9NRH2). The experiment in a line: KiNativ, OCI cells live cell. It counts as cell-based. The settings on record: 2 h, labeling site Lys1, peptide […].
A further assay addresses TBK1 (Homo sapiens, UniProt Q9UHD2). The experiment in a line: KiNativ, OCI cells live cell. The format is cell-based. The settings on record: 2 h, labeling site Lys1, peptide […].
Setting [3] is: sample 003: FLT3 wild-type, NRAS, EZH2, JAK3, IDH2, BCOR, DNMT3A, read-out: IC50 viability.
Where [4] appears, read: sample 036: FLT3 wild-type, NRAS, IDH2, NPM1, DNMT3A, read-out: IC50 viability.
The mark [5] stands for this setting: sample 142: FLT3-ITD, NPM1, read-out: IC50 viability.
Setting [6] is: sample 240: FLT3-ITD, IDH2, NPM1, read-out: IC50 viability.
Where [7] appears, read: sample 370: FLT3-ITD, IDH1, NPM1, SMARCA2, read-out: IC50 viability.
Setting [8] is: sample 398: FLT3 wild-type, NRAS, CCND2, ATM, IDH2, STAG2, read-out: IC50 viability.
The mark [9] stands for this setting: sample 0762 (762): FLT3-ITD, NRAS, KRAS, DNMT3A, NPM1, D835E, read-out: IC50 viability.
The mark [10] stands for this setting: sample 774: FLT3-ITD, CBL, IDH1, NPM1, read-out: IC50 viability.
Setting [11] is: sample 1069: FLT3-ITD, SRSF2, IDH2, DNMT3A, read-out: IC50 viability.
Setting [12] is: sample 1355: FLT3-ITD, NPM1, IDH2, read-out: IC50 viability.
Where [13] appears, read: sample 2656: FLT3-ITD, IDH2, NPM1, read-out: IC50 viability.
[14] abbreviates: samples with RAS (NRAS, KRAS, PTPN11) mutations, read-out: IC50, range.
Where [15] appears, read: 50 mg/kg once daily 5 days/week.

By IC50 is commonly meant the concentration that inhibits the measured activity by half. With `CCc1nc(C(N)=O)c(Nc2ccc(N3CCC(N4CCN(C)CC4)CC3)c(OC)c2)nc1NC1CCOCC1` [Gilteritinib, gilteritinib], the 50% inhibitory concentration (IC50) in [1] is 2600 nM; in assay [2] (AML samples with FLT3-ITD mutations, read-out: IC50, median) it was 263 nM; in assay [2] (AML samples with FLT3-ITD mutations, read-out: IC50, range), 93 to 1310 nM; in [2] (setting [3]), 576 nM; in assay [2] (setting [4]), 731 nM; in assay [2] (setting [5]) it was 334 nM. Further, the IC50 in assay [2] (setting [6]) turned out to be 92.5 nM; in assay [2] (setting [7]) it was 239 nM; in [2] (setting [8]) it was 260 nM; in assay [2] (setting [9]), 1310 nM; in assay [2] (setting [10]), 161 nM; in assay [2] (setting [11]), 286 nM. Moreover, the IC50 was 105 nM in assay [2] (setting [12]), 633 nM in assay [2] (setting [13]) and 260 to 731 nM in assay [2] (setting [14]).
What is called Kd is the free concentration of one partner at which half of the binding sites on the other are occupied at equilibrium, for simple one-to-one binding. A low value points to a tighter complex. For orientation: Inhibition means the relative decrease from the control value, in per cent. Broadly, the inhibition is the drop in the measured response relative to a control, in per cent. Consider `CN1CCN(Cc2ccc(Nc3ncc(Cl)c(Nc4ccccc4S(=O)(=O)N(C)C)n3)cc2)CC1` [TP-0903], for which the Kd at PLK4 is < 5 nM; at FLT3 ITD/F691L it was 1.9 nM. The IC50 was 300 nM in assay [1]; 35 nM in [2] (all human primary samples, read-out: IC50, median); 21 to 67 nM in [2] (all human primary samples, read-out: IC50, range); < 100 nM in [2] (all human primary samples, read-out: IC50 values, all samples); 58 nM in assay [2] (setting [3]); 21 nM in assay [2] (setting [4]). Further, the IC50 in assay [2] (setting [5]) is 35 nM; in assay [2] (setting [6]), 26.2 nM; in assay [2] (setting [7]), 26.6 nM; in [2] (setting [8]), 60 nM; in assay [2] (setting [9]) it was 38 nM; in assay [2] (setting [10]), 45 nM. Besides, the IC50 in assay [2] (setting [11]) is 67 nM; in assay [2] (setting [12]), 26.8 nM; in assay [2] (setting [13]), 33 nM; in assay [2] (setting [14]), 21 to 60 nM. In the assay on OCI-AML3-Luc+ cells (setting [15]), the “Outgrowth of leukemia cells (bioluminescence)” value is “suppressed the outgrowth of leukemia cells”. In the assay on OCI-AML3-Luc+ cells (setting [15]), the “Spleen weight at study endpoint (mean ± SD)” value came out at 181 ± 21 mg. Moreover, the “Survival prolonged compared with vehicle” value with OCI-AML3-Luc+ cells (50 mg/kg once daily 5 days/week up to 6 weeks) is on record as 9 days. Further, the Inhibition is on record as 71.8% in the assay with AMPKa1, AMPKa2 (labeling site Lys1, peptide VAVKILNR); 75.1% in the assay with AMPKa1, AMPKa2 (labeling site Lys2, peptide DLKPENVLLDAHMNAK); -14.9% with CDK11, CDK8; 36.2% at JAK2 domain2. Further, the inhibition at 0.1 µM against CK1a was -12.3%; against Erk2, 22.7%; against FES, 47.3%; at IRAK1, 62.8%; at MSK1 domain1 it was 8.3%; against PITSLRE it was -18.9%. The results for the inhibition at 0.1 µM against SNRK and against TBK1 were 1% and 83%, respectively.
